Test results from patent US20090131406A1 (BAYER CROPSCIENCE AG, priority 2005, published 2009).

Legend:
Experiment in all cases: LIVE/DEAD cytotoxicity assay, inhibition of cell proliferation
Format in all cases: cell-based, human
Conditions in all cases: 48 hours of incubation, calcein-AM fluorescence, cell growth reduced by 50% compared to control
[1] = test system: SW620 cells
Method: (§1) The compounds of the general formula (I) according to the invention were tested for a possible cytotoxic or proliferation-inhibiting activity on the human tumour cell lines HeLa, SW620 and A375 (all from ATTC, American Type Culture Collection). To this end, the cells were plated in microtitre plates from Greiner (Manufacturer No. 781092) at a cell density of 1000 cells/microtitre plate well and cultivated in cell culture medium at 37° C. under a 5% carbon dioxide atmosphere. Cell culture media and additives were purchased from Invitrogen and the foetal calf serum from Biochrom. The cell culture media for Hela and A375 cells were used as stated by ATCC (HeLa: MEM, Order No. 10370-047, with 1% sodium bicarbonate, 1% non-essential amino acids, 1% sodium pyruvate, 10% foetal calf serum, 0.1% gentamycin; A375: DMEM, Order No. 41965-039, 2% sodium bicarbonate, 1% L-Glutamax, 10% foetal calf serum, 0.1% gentamycin). The culture medium for the SW620 cells consisted of DMEM, Order No. 41965-039, 1% non-essential amino acids, 10% foetal calf serum, 0.1% gentamycin.
(§2) 24 hours after the cells had been plated in the microtitre plates, various concentrations of at most 100 μM down to a minimum concentration of 5 nM of the test compounds were added to the cells. Stock solutions of the test compounds (10 mM) were prepared in DMSO and stored at −20° C.; for the cytotoxicity tests, the test compounds were diluted in the appropriate cell culture medium.
(§3) After a further 48 hours of incubation, the cells were washed with medium and analysed with the aid of a two-colour fluorescence cytotoxicity/viability test (LIVE/DEAD viability/cytotoxicity ASSAY kit from Molecular Probes, Order No. L-3224), according to the instructions of the manufacturer. To this end, the medium was aspirated and in each case 30 μl of LIVE/DEAD reagent per microtitre plate well were added to the cells, which were then incubated for 30 minutes. The cells were then washed with PBS (phosphate-buffered saline). The number of live cells was analysed by measuring the green fluorescence of the live dye calcein-AM as a component of the LIVE/DEAD reagent using a fluorescence plate reader (Flexstation, from Molecular Devices) at an excitation wavelength of 485 nm and an emission wavelength of 525 nm (cf. Oral, H. B. Endothelium 6, (1998), 143-151).
(§4) Cells only with cell culture medium, without added test compounds, were treated in parallel and analysed as growth controls. The reference compounds used for anti-tumour agents having a cytotoxic or proliferation-inhibiting action were colchicine (from Merck/Calbiochem, Order No. 234115) and Taxol (baccatin III N-benzyl-b-phenylisoserine ester, from Merck/Calbiochem, Order No. 580555) (cf. Schiff, P. B. and Horwitz, S. B., Proceedings of the National Academy of Sciences of the U.S.A. 77, 1561-1565, 1980; Holmes, F. A. et al., Journal of the National Cancer Institute 83, 1797-1805, 1991).
(§5) The cytotoxic effects of the test compounds were expressed as logarithmic GI50 values (growth-inhibiting logarithmic concentration value at which a cell growth reduced by 50% compared to the control without test compounds was measured (cf. Xia et al., Journal of Medicinal Chemistry 44, 3932-3936, 2001; Smith, J. A. et al., Gynecologic Oncology 98, 141-145, 2005)).

[2] = test system: A375 cells
Method: as §1, §2, §3, §4, §5

[3] = test system: HeLa cells; parameters: log GI50 values (M), HeLa cells: unit not given here
Method: as §1
24 hours after the cells had been plated in the microtitre plates, various concentrations of at most 100 μM down to a minimum concentration of 5 nM of the test compounds were added to the cells. […]
as §3, with “To this end, the medium was aspirated and in each case 30 μl of LIVE/DEAD reagent per microtitre plate well were added to the cells, which were then incubated for 30 minutes. The cells were then washed with PBS (phosphate-buffered saline).” left out
Cells only with cell culture medium, without added test compounds, were treated in parallel and analysed as growth controls. […]

CO[C@@H]1[C@@H](OC)[C@H](O[C@@H]2CC(=O)[C@@H]3CCN(Cc4cc5c(cc43)OCO5)C(=O)[C@H]2O)O[C@H](CO)[C@H]1OC [Cripowellin II, cripowellin II]
log GI50 values (M), SW620 cells [1]: 6.9 -log M | log GI50 values (M), A375 cells [2]: 8.0 M | log GI50 values (M), HeLa cells [3]: 8.7
